Ends that are not written are not given here.
How the values were obtained:
[1] = test system: mice; assay: Stress-induced hyperthermia (SIH) assay; assay type: in vivo; conditions: 60 minutes before the assay, FIG. 1
Method: (§1) Animal behavior assays were performed to test for anxiolytic and antipsychotic effects of FN-38 (SEQ ID NO:5) administration. […] These specific behavioral tests are known to be sensitive to anxiolytic or antipsychotic drugs. For these assays, FN-38 was administered to mice at doses ranging from 0.1 to 10 mg/kg, intraperitoneally, and their performance in the assay was assessed.
Body temperature and emotionality are correlated in humans and stress commonly induces an increase in body temperature (hyperthermic response) in rodents. The thermic response to stress is commonly used as an indication of enhanced emotionality or anxiety in rodents and stress-induced hyperthermia (SIH) in mice is considered to have predictive validity for certain human anxiety/stress disorders. The SIH assay assesses the effect of anxiolytics or test agents on SIH and measures the intrinsic effects of these drugs on core body temperature of the animal. See, for example, Zethof et al., 1994, Physiol. Behav. 55:109-115. Anxiolytics blunt the increase in body temperature, or hyperthermic response, following stress exposure. Buspirone is a partial 5-HT1A agonist and a known anxiolytic agent. […] The stress from the first measurement induces hyperthermia which was measured by the second temperature measurement. […]

[2] = test system: mice; assay: Prepulse inhibition (PPI) test; assay type: in vivo; conditions: 78 and 82 dB prepulse, FIG. 4
Method: as §1
The prepulse inhibition (PPI) test measures the reflex response to externally applied auditory stimulation (acoustic startle response) and is related to the deficiency in sensory-motor gating capacity seen in schizophrenia. The acoustic startle reflex is a very basic response to strong exteroceptive stimuli and is widely used to assess sensorimotor reactivity in animals and humans. A weak auditory stimulus (prepulse, 74-82 dB) given prior to the strong acoustic stimulus (120 dB) blunts the startle response. This blunting of the startle response is referred to as prepulse inhibition. See, for example, Conti et al., 2005, Behavioral Neuroscience 119:1052-1060. […]
Mice were injected with the test agent (FN-38 (SEQ ID NO:5) at 0.1, 1.0 or 10 mg/kg, or vehicle (water)) […] to the test or with haloperidol at 1 mg/kg or vehicle (10% DMSO) 30 minutes prior to the test. […] The amount of the animal's “reaction” to the strong stimulus was recorded. […]

[3] = test system: mice; assay: Marble burying; assay type: in vivo; conditions: FN-38 10 mg/kg intraperitoneally, 15-30 minutes prior to the test; statistically significant; FIG. 2
Method: as §1
Marble burying is used as a model for both anxiety and obsessive-compulsive disorder. See, for example, Chaki et al., 2003, J. Pharmacol. Exp. Ther. 304:818-826. Anxiolytics suppress marble burying activity. Benzodiazepine chlordiazepoxide (CDP) is a known anxiolytic agent. Mice were injected with the test agent (FN-38 (SEQ ID NO:5) at 0.1, 1.0 or 10 mg/kg, 15 mg/kg CDP, or vehicle (water)) 15-30 minutes prior to the test. Mice were then placed individually in clean cages containing 5-cm of hard wood bedding and 20 marbles spaced evenly in rows of five. The number of marbles buried in 30 minutes was recorded. Results of this assay are shown in FIG. 2 where * is P<0.05 vs. vehicle control. […] These reductions in marble burying were statistically significant.

[4] = test system: mice; assay: Phencyclidine (PCP)-induced locomotion test; assay type: in vivo; conditions: FN-38 10 mg/kg, 15-30 minutes prior to 5 mg/kg PCP; activity recorded for 60 minutes; FIG. 3
Method: as §1
The PCP-induced locomotion test is used with open field activity chambers and measures locomotion, rearing, and stereotypic activity under amphetamine/PCP-induced conditions. The test has predictive validity for some antipsychotic drugs that normalize the hyperactivity and stereotypic behavior seen with amphetamine and PCP. See, for example, Williams et al., 2006, Prog. Neuropsychopharmacol. Biol. Psychiatry, 30:239-243. Mice were injected with the test agent (FN-38 (SEQ ID NO:5) at 0.1, 1.0 or 10 mg/kg, or vehicle (water)) 15-30 minutes prior injection with 5 mg/kg PCP. The animals were then placed in the center of an open field and activity was recorded for 60 minutes.

[5] = test system: rats; conditions: central administration to rats; cited from earlier work

O=C1CC2(CCCC2)CC(=O)N1CCCCN1CCN(c2ncccn2)CC1 [buspirone, reference compound]
stress-induced hyperthermia (Delta Temperature) ([1]; 15 mg/kg buspirone, positive control): blunted the SIH response

O=C(CCCN1CCC(O)(c2ccc(Cl)cc2)CC1)c1ccc(F)cc1 [halperidol, haloperidol, reference compound]
percent of prepulse inhibition ([2]; haloperidol at 1 mg/kg, 30 minutes prior to the test, positive control): increased the percent of prepulse inhibition

FLFHYSKTQKLGKSNVVEELQSPFASQSRGYFLFRPRN (FLFHYSKTQKLGKSNVVEELQSPFASQSRGYFLFRPRN-NH2; listed as Homo sapiens) [FN-38]
number of marbles buried in 30 minutes [3]: reduced the number of marbles buried
PCP-induced hyper-locomotion (total distance traveled: total, central, and peripheral) [4]: significantly reduced this hyper-locomotion response
stress-induced hyperthermia (Delta Temperature) ([1]; FN-38 10 mg/kg intraperitoneally, P<0.05 vs. vehicle control): blunted the SIH response
percent of prepulse inhibition ([2]; FN-38 10 mg/kg, 120 dB stimulus): increased the percent of prepulse inhibition

neuromedin U (YKVNEYQGPVAPSGGFFLFRPRN-NH2; UniProt P12760 144-166, looked up) [NMU, neuromedin U, centrally administered to rats in cited literature]
food intake [5]: inhibited food intake
